Measured values as given in the NIST ThermoML archive (doi:10.1016/j.jct.2014.04.021).
Numbers after ± are expanded uncertainties.

Conditions: for mass density: 101.33 kPa, Liquid, Vibrating tube method; for Normal melting temperature: Crystal, DTA

Row | SMILES | Normal melting temperature [°C] | further results
1 | CCCCCC[N+]1(C)CCCCC1.O=S(=O)([N-]S(=O)(=O)C(F)(F)F)C(F)(F)F | – | mass density (293 K): 1329.5 ± 1.1 kg/m3; mass density (298.15 K): 1325.4 ± 1.1 kg/m3
2 | CCCCn1cc[n+](C)c1.N#CC1=NC(C(F)(F)F)=NC1=C=[N-] | – | mass density (298.15 K): 1199.65 ± 1.5 kg/m3
3 | C[n+]1ccn(CC#N)c1.N#Cc1nc(C(F)(F)F)[n-]c1C#N | 92.7 ± 0.4 | –
4 | CCCCCC[n+]1cccc2ccccc21.O=S(=O)([N-]S(=O)(=O)C(F)(F)F)C(F)(F)F [1-hexylquinolinium bis(trifluoromethylsulfonyl)amide] | 45 ± 0.4 | –
5 | CCCCCC[n+]1ccc2ccccc2c1.O=S(=O)([N-]S(=O)(=O)C(F)(F)F)C(F)(F)F [N-hexylisoquinolinium bis(trifluoromethylsulfonyl)imide] | – | mass density (333.2 K): 1349.3 ± 1.8 kg/m3

Now from value to molecule, other results behind:

Row | Normal melting temperature [°C] | SMILES | further results
6 | 98.6 ± 0.4 | OC[C@@H](O)[C@@H](O)[C@H](O)[C@@H](O)CO [D-sorbitol] | –
7 | 94.1 ± 0.4 | OC[C@@H](O)[C@H](O)[C@@H](O)CO [xylitol] | –
